{
  "source": "patent US20090312414A1",
  "about": "“Treatment Of Lower Urinary Tract Dysfunction With CB2-Receptor-Selective Agonists” (priority 2008, published 2009)",
  "tested_on": "conscious normal rats",
  "test": "Cystometry in normal conscious rats",
  "format": "in vivo, rat",
  "details": "for Residual volume (RV): ns",
  "excerpt": "This study involved a determination of the acute effect of the compound of Formula I, a peripherally-selective, CB2-receptor-selective agonist, on normal bladder function in normal conscious freely moving rats using cystometry.\nFemale Sprague-Dawley rats, weighing 225-300 g, were maintained under standard laboratory conditions with a 12:12 light/dark cycle and free access to food pellets and water. After surgical procedures, rats were individually caged to prevent chewing of the catheters. For surgical procedures, the rats were anesthetized by intraperitoneal injection of 75 mg/kg ketamine (Ketalar®, Pfizer, Sweden) and 15 mg/kg xylazine (Rompun®, Bayer, Sweden).\nThe bladder was exposed via a mid-line incision of the lower abdomen. A saline-filled polyethylene catheter (PE-50, Clay-Adams, Parsippany, N.J.) with a cuff was inserted into the dome of the bladder and held in place with a purse string suture. The catheter was tunneled subcutaneously and anchored at the neck with a silk ligature, and the free end of the catheter was sealed.\nIn the same surgical session as for implantation of the bladder catheter, access to the femoral vein was given via the mid-line incision of the lower abdomen after careful blunt dissection of the subcutaneous fascias and the femoral vascular sheath. A stretched PE-50 catheter filled with heparinized saline was introduced into the femoral vein and forwarded with its tip in the iliac vein. The catheter was then secured in position by two ligatures, tunneled subcutaneously to the skin of the back and anchored as described above, and the free end of the catheter was sealed.\nThe appropriate solution of the compound of Formula I was prepared on the day of the experiment using phosphate-buffered saline (“PBS”) as the vehicle. The compound of Formula I was dissolved to obtain a 10 mg/ml stock solution. For the 3 mg/kg dose, each animal was administered individually weight-controlled amounts in a volume of approximately 100 μl IV of the stock solution. For lower doses, appropriate dilutions of the stock solution were made and animals were administered similar volumes containing 0.3 or 1 mg/kg. […] After administration of the compound of Formula I, 100 μl of heparinized saline was also infused to flush the IV catheter, and a 90 to 120-minute observation period was allowed until final stable micturitions were obtained. Each animal served as its own control.\nCystometry was performed without anesthesia three days after the implantation of bladder catheters in normal rats. The conscious rats were placed in metabolic cages without restraint and the bladder catheters were connected via a T-tube to a pressure transducer (P23 DC; Statham Instruments Inc., Oxnard, Calif.) and a microinjection pump (CMA 100; Carnegie Medicine AB, Solna, Sweden). Micturition volumes were recorded with a fluid collector connected to a force displacement transducer (FT 03 D, Grass Instrument Co., Quincy, Mass.). Room-temperature saline was infused into the bladder continuously at a rate of 10 ml/h. Pressures and micturition volumes were recorded continuously with Acq Knowledge 3.8.1 software and a MP100 data acquisition system (Biopac Syst. Inc. Santa Barbara, Calif.) connected to a Grass polygraph (Model 7E, Grass Instrument Co). At the beginning of cystometry, the bladder was emptied via the bladder catheter.\nThe following urodynamic parameters were investigated: micturition pressure (“MP;” maximum bladder pressure during micturition), threshold pressure (“ThP”; bladder pressure at start of detrusor contraction), flow pressure (“FP”; bladder pressure when urethra opens), micturition interval (“MI”; time between two micturitions), micturition volume (“MV”; volume of the expelled urine), and residual volume (“RV”; volume left in bladder after a micturition). […]",
  "data": [
    {"smiles": "CCCCCCC(C)(C)c1cc(O)c([C@H]2CC(=O)[C@H]3C[C@@H]2C3(C)C)c(OC(=O)/C=C/C(=O)O)c1", "note": "[Formula I]", "values": [
      {"measurement": "Basal pressure (BP)", "setting": "0.3 mg/kg IV", "result": "4.7±2.0", "unit": "cmH2O"},
      {"measurement": "Micturition pressure (MP)", "setting": "0.3 mg/kg IV", "result": "64.3±12.3", "unit": "cmH2O"},
      {"measurement": "Rats responding with increased MI", "setting": "0.3 mg/kg IV", "result": "5 out of 8"},
      {"measurement": "Rats responding with increased MV", "setting": "0.3 mg/kg IV", "result": "5 out of 8"},
      {"measurement": "Rats responding with increased ThP", "setting": "0.3 mg/kg IV", "result": "5 out of 8"},
      {"measurement": "Bladder capacity (BC)", "setting": "0.3 mg/kg IV, not significant", "result": "0.98 ± 0.21", "unit": "mL"},
      {"measurement": "Flow pressure (FP)", "setting": "0.3 mg/kg IV, not significant", "result": "34.1±8.8", "unit": "cmH2O"},
      {"measurement": "Micturition interval (MI)", "setting": "0.3 mg/kg IV, not significant", "result": "260 ± 69", "unit": "s"},
      {"measurement": "Micturition volume (MV)", "setting": "0.3 mg/kg IV, not significant", "result": "0.93 ± 0.21", "unit": "mL"},
      {"measurement": "Threshold pressure (ThP)", "setting": "0.3 mg/kg IV, not significant", "result": "16.5±2.2", "unit": "cmH2O"},
      {"measurement": "Residual volume (RV)", "setting": "0.3 mg/kg IV", "result": "0.01 ± 0.01", "unit": "mL"},
      {"measurement": "Basal pressure (BP)", "setting": "1 mg/kg IV", "result": "3.7±1.2", "unit": "cmH2O"},
      {"measurement": "Micturition pressure (MP)", "setting": "1 mg/kg IV", "result": "65.1±8.6", "unit": "cmH2O"},
      {"measurement": "Rats responding with increased MI", "setting": "1 mg/kg IV", "result": "3 out of 8"},
      {"measurement": "Rats responding with increased MV", "setting": "1 mg/kg IV", "result": "6 out of 8"},
      {"measurement": "Rats responding with increased ThP", "setting": "1 mg/kg IV", "result": "1 out of 8"},
      {"measurement": "Bladder capacity (BC)", "setting": "1 mg/kg IV, not significant", "result": "0.91 ± 0.17", "unit": "mL"},
      {"measurement": "Flow pressure (FP)", "setting": "1 mg/kg IV, not significant", "result": "26.0±2.4", "unit": "cmH2O"},
      {"measurement": "Micturition interval (MI)", "setting": "1 mg/kg IV, not significant", "result": "251 ± 63", "unit": "s"},
      {"measurement": "Micturition volume (MV)", "setting": "1 mg/kg IV, not significant", "result": "0.90 ± 0.17", "unit": "mL"},
      {"measurement": "Threshold pressure (ThP)", "setting": "1 mg/kg IV, not significant", "result": "12.6±2.0", "unit": "cmH2O"},
      {"measurement": "Residual volume (RV)", "setting": "1 mg/kg IV", "result": "0.01 ± 0.01", "unit": "mL"},
      {"measurement": "Basal pressure (BP)", "setting": "3 mg/kg IV", "result": "9.0±4.3", "unit": "cmH2O"},
      {"measurement": "Micturition pressure (MP)", "setting": "3 mg/kg IV", "result": "87.3±18.9", "unit": "cmH2O"},
      {"measurement": "Rats responding with increased FP", "setting": "3 mg/kg IV", "result": "6 out of 8"},
      {"measurement": "Rats responding with increased MI", "setting": "3 mg/kg IV", "result": "7 out of 8"},
      {"measurement": "Rats responding with increased MV", "setting": "3 mg/kg IV", "result": "7 out of 8"},
      {"measurement": "Rats responding with increased ThP", "setting": "3 mg/kg IV", "result": "7 out of 8"},
      {"measurement": "Threshold pressure (ThP)", "setting": "3 mg/kg IV, ANOVA ns, paired t-test vs. baseline p=0.05", "result": "38.1±13.9", "unit": "cmH2O"},
      {"measurement": "Flow pressure (FP)", "setting": "3 mg/kg IV, not significant", "result": "62.3±18.4", "unit": "cmH2O"},
      {"measurement": "Residual volume (RV)", "setting": "3 mg/kg IV", "result": "0.02 ± 0.02", "unit": "mL"},
      {"measurement": "Bladder capacity (BC)", "setting": "3 mg/kg IV, p<0.001 vs. baseline, p<0.005 vs. vehicle", "result": "1.42 ± 0.18", "unit": "mL"},
      {"measurement": "Micturition volume (MV)", "setting": "3 mg/kg IV, p<0.001 vs. baseline, p<0.01 vs. vehicle", "result": "1.4 ± 0.2", "unit": "mL"},
      {"measurement": "Micturition interval (MI)", "setting": "3 mg/kg IV, p<0.02 vs. baseline", "result": "423 ± 63", "unit": "s"},
      {"measurement": "Animals responding with an increase or decrease in FP", "setting": "0.3 and 1 mg/kg IV", "result": 50, "unit": "%"},
      {"measurement": "Animals with a decrease in BP", "setting": "all doses (0.3, 1, 3 mg/kg IV)", "result": "37.5-50 % of rats"},
      {"measurement": "Animals with an increase in BP", "setting": "all doses (0.3, 1, 3 mg/kg IV)", "result": "25-37.5 % of rats"},
      {"measurement": "Animals with no change in BP", "setting": "all doses (0.3, 1, 3 mg/kg IV)", "result": "12.5-25 % of rats"},
      {"measurement": "Rats responding with increased BC", "setting": "all doses (0.3, 1, 3 mg/kg IV)", "result": "6 out of 8"}
    ]}
  ]
}
